Assay results from the NIST ThermoML archive (doi:10.1021/je020185k).

Assays:
[1] = Liquid; for mass density: 298.15 K, 101.33 kPa
[2] = xn = mol fraction of the nth substance listed; details: 298.15 K, 101.3 kPa, Liquid

C1COCCO1 [1,4-dioxane]
[1]
Details | Normal boiling temperature [°C] | mass density [kg/m3]
– | 101.37 | 1027.88

CC(C)CCl [1-chloro-2-methylpropane]
Details | mass density [kg/m3]
[1] | 871.13

Details | Normal boiling temperature [°C]
[1], Ebulliometric method (Recirculating still) | 68.90

CC(C)CCl [1-chloro-2-methylpropane] + C1COCCO1
[2]
Details | mass density [kg/m3]
x2 = 0.0529 | 877.81
x2 = 0.1009 | 883.95
x2 = 0.2001 | 896.98
x2 = 0.3003 | 910.79
x2 = 0.3957 | 924.5
x2 = 0.5022 | 940.58
x2 = 0.5945 | 955.19
x2 = 0.7005 | 972.78
x2 = 0.7926 | 988.8
x2 = 0.8978 | 1008.04
x2 = 0.9371 | 1015.61

CCCCCl [1-chlorobutane]
Details | mass density [kg/m3]
[1] | 880.69

Details | Normal boiling temperature [°C]
[1], Ebulliometric method (Recirculating still) | 78.37

CCCCCl [1-chlorobutane] + C1COCCO1
[2]
Details | mass density [kg/m3]
x2 = 0.0422 | 885.61
x2 = 0.0947 | 891.8
x2 = 0.2055 | 905.35
x2 = 0.2766 | 914.45
x2 = 0.4083 | 932.02
x2 = 0.4852 | 942.87
x2 = 0.6082 | 961.08
x2 = 0.6587 | 968.92
x2 = 0.7939 | 990.92
x2 = 0.894 | 1008.37
x2 = 0.9509 | 1018.71

CC(C)(C)Cl [2-chloro-2-methylpropane]
Details | mass density [kg/m3]
[1] | 836.45

Details | Normal boiling temperature [°C]
[1], Ebulliometric method (Recirculating still) | 50.73

CC(C)(C)Cl [2-chloro-2-methylpropane] + C1COCCO1
[2]
Details | mass density [kg/m3]
x2 = 0.0563 | 845.77
x2 = 0.1059 | 853.89
x2 = 0.2019 | 870.2
x2 = 0.3134 | 889.71
x2 = 0.4148 | 908.22
x2 = 0.5097 | 926.46
x2 = 0.6071 | 945.55
x2 = 0.7113 | 966.4
x2 = 0.8 | 984.5
x2 = 0.9062 | 1006.81
x2 = 0.9554 | 1017.73

CCC(C)Cl (centres undefined) [2-chlorobutane]
Details | mass density [kg/m3]
[1] | 867.4

Details | Normal boiling temperature [°C]
[1], Ebulliometric method (Recirculating still) | 68.11

CCC(C)Cl (centres undefined) [2-chlorobutane] + C1COCCO1
[2]
Details | mass density [kg/m3]
x2 = 0.0522 | 874.11
x2 = 0.0886 | 878.88
x2 = 0.1892 | 892.48
x2 = 0.2923 | 907.06
x2 = 0.3647 | 917.71
x2 = 0.4928 | 937.42
x2 = 0.6155 | 957.41
x2 = 0.7149 | 974.47
x2 = 0.8019 | 990.07
x2 = 0.9068 | 1009.72
x2 = 0.941 | 1016.33
